Counter-ions that a name gives are not always drawn. Like-named read-outs stand apart in the source and are kept apart here.
Experiments:
[1] = biological target: GABA channels expressing the α1 subunit (GABRA1-GABRB3-GABRG2) in HEK cells (Homo sapiens (Human), UniProt P14867+P18507); assay: QPatch whole-cell patch-clamp electrophysiology, enhancement of GABA current (α1); type: cell-based; conditions: −60 mV, approximately EC10 GABA
Procedure: (§1) Cell suspension containing HEK cells expressing GABRA2-GABRB2-GABRG2 was placed on the QPatch instrument in serum-free medium into the instrument's cell stirrer. […] All recordings were made at room temperature (22-24° C.).
(§2) Current records were acquired at 1 KHz and filtered at 0.3 KHz using the Bessel filter. Series resistance compensation was set to 80% in the QPatch software.
(§3) All compounds were dissolved in dimethyl sulfoxide to make 30 mM or 10 mM stock solutions, which were then diluted to 1000 times the desired final concentration in dimethyl sulfoxide. These were diluted into extracellular solution to attain the final concentrations desired. […] This concentration of dimethyl sulfoxide was present in all samples.
(§4) Currents were recorded at −60 mV, using an approximately EC10 concentration of gamma-aminobutyric acid (GABA).
(§5) Compound effect (% enhancement of gamma-aminobutyric acid current) was calculated using the following formula: [((peak modulator current amplitude−leak)−(GABA current amplitude−leak))/(GABA current amplitude−leak)]*100, where ‘leak’ is leak current at −60 mV, ‘peak modulator current amplitude’ is the current elicited by co-application of gamma-aminobutyric acid and test compound, and ‘GABA current amplitude’ is the current elicited by application of gamma-aminobutyric acid alone.
The ability of the compounds of the formula (I) to modulate the GABA channels expressing the α1 subunit (or GABRA1) can also be measured using an assay analogous to that described above but replacing the GABRA2-GABRB2-GABRG2 gene construct with the GABRA1-GABRB3-GABRG2 gene construct. All other conditions remain the same including the same cell line and conditions for cell growth.

[2] = biological target: human recombinant GABA A receptor containing the alpha2, beta2, and gamma3 subunits (Homo sapiens, UniProt P47869+Q99928); assay: Radioligand competition binding assay with [3H]Ro-15-1788 (Flumazenil)
Procedure: Membranes were prepared from HEK cells expressing hGABA A alpha2beta2-gamma3 receptor, and validated to ascertain protein concentration, receptor expression and to determine the Kd of the flumazenil as well as the Ki of a standard set of compounds before being used to test new compounds.
100 ul of radioligand and 100 ul of membrane in 50 mM Tris-HCl and 0.05% F127 with 1 ul of test compound was incubated for 2 hours to allow the reaction to achieve equilibrium, and then harvested onto filter plates, dried and counted on a TopCount NXT. The data was analysed, and the Ki values were presented as the geometric mean of at least two replicates.

[3] = biological target: GABRA2-GABRB2-GABRG2 chloride currents in HEK cells (Homo sapiens (Human), UniProt P18507+P47869); assay: QPatch whole-cell patch-clamp electrophysiology, enhancement of GABA current (α2); type: cell-based; conditions: −60 mV, approximately EC10 GABA
Procedure: Human Embryonic Kidney (HEK) cells were transfected with a GABRA2-GABRB2-GABRG2 construct using standard techniques.
For QPatch electrophysiology testing, cells were harvested from flasks by enzymatic dissociation and resuspended in serum-free medium. Cells were typically used for electrophysiological experiments within 24 to 72 hours after splitting.
as §1, §2, §3, §4, §5

[4] = read-out: GABA-α2 Ki, hGABA A alpha2beta2gamma3 membranes from HEK cells, geometric mean of at least two replicates

GABA channels expressing the α1 subunit (GABRA1-GABRB3-GABRG2) in HEK cells, sequence (P14867 28-456): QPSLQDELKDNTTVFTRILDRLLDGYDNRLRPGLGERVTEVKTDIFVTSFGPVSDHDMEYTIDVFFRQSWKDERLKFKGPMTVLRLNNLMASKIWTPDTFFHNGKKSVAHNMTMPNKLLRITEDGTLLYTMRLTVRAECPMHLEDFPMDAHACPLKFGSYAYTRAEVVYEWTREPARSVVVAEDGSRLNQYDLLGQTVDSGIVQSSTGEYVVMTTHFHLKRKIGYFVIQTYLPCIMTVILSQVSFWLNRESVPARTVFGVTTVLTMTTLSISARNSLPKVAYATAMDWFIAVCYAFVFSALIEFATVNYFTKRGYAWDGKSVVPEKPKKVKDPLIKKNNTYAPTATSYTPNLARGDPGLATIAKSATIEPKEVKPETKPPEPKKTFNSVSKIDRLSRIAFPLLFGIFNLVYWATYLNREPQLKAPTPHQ
GABA channels expressing the α1 subunit (GABRA1-GABRB3-GABRG2) in HEK cells, sequence (P28472 26-473 partner): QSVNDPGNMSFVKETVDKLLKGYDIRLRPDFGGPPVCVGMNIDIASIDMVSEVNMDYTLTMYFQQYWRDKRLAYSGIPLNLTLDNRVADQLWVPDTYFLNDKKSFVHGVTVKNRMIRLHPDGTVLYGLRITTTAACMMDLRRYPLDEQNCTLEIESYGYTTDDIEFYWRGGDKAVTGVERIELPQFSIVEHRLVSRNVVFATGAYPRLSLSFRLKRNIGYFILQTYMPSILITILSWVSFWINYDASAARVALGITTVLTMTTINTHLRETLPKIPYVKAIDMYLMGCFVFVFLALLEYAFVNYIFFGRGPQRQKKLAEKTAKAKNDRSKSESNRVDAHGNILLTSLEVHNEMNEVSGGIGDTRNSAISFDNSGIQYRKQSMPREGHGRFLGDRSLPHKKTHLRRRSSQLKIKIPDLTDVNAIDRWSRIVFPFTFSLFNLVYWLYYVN
GABA channels expressing the α1 subunit (GABRA1-GABRB3-GABRG2) in HEK cells, sequence (P18507 40-475): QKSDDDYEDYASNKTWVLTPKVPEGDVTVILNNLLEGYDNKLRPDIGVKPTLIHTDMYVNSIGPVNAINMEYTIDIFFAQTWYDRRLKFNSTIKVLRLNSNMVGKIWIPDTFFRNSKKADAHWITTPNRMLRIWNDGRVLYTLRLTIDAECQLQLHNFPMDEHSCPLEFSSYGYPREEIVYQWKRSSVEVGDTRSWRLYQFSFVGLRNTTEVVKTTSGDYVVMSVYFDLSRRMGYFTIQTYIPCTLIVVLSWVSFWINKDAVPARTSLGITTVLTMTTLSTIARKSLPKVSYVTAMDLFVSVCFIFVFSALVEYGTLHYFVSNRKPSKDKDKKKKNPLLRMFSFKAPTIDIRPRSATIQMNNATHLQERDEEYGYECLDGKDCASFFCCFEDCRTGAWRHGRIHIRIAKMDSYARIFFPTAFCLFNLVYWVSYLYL
GABRA2-GABRB2-GABRG2 chloride currents in HEK cells, sequence (P47869 29-451): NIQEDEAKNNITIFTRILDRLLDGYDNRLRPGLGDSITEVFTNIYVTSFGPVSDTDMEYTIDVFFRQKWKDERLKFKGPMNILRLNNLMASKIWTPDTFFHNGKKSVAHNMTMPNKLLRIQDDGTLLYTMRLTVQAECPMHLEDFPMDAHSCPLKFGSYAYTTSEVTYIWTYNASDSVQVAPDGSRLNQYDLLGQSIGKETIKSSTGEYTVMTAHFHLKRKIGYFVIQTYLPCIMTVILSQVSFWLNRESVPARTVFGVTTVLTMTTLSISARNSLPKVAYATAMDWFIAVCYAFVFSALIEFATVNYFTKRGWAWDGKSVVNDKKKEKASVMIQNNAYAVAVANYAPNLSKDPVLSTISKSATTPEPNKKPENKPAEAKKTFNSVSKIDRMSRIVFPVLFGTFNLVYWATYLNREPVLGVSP
GABRA2-GABRB2-GABRG2 chloride currents in HEK cells, sequence (P47870 26-512 partner): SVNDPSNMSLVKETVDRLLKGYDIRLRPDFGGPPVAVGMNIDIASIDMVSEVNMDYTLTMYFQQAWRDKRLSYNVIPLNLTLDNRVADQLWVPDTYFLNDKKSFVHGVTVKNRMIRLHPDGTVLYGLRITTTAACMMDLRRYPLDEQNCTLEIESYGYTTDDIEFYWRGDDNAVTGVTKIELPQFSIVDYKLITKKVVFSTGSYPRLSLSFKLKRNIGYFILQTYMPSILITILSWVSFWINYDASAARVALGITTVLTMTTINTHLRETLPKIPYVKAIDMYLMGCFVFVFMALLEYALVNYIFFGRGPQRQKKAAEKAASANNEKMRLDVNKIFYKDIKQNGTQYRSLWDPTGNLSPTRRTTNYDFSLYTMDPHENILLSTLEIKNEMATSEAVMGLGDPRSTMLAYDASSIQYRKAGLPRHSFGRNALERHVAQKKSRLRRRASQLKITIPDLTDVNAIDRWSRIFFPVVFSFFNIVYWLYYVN
GABRA2-GABRB2-GABRG2 chloride currents in HEK cells, sequence (P18507 40-475): as the sequence (P18507 40-475) above

Structure (SMILES)	α1 PAM (% enhancement of gamma-aminobutyric acid current) [1] [%]	Ki [2] [nM]	α2 PAM (% enhancement of gamma-aminobutyric acid current) [3] [%]	Ki [2, 4] [nM]
CNC(=O)c1ccc(F)c(-c2cc(-c3cnnc4c3ncn4C3CC3)ccc2F)c1 [Example 8, 5′-(7-Cyclopropyl-7H-imidazo[4,5-c]pyridazin-4-yl)-2′,6-difluoro-N-methyl-biphenyl-3-carboxamide]				29
CCn1cnc2c(-c3ccc(F)c(-c4ccc(C(=O)N(C)C)c(F)c4)c3)cnnc21 [Example 17, 5′-(7-Ethyl-7H-imidazo[4,5-c]pyridazin-4-yl)-2′,3-difluoro-N,N-dimethylbiphenyl-4-carboxamide trifluoroacetate salt]				52.8
CCn1cnc2c(-c3ccc(F)c(-c4cccc(C(N)=O)c4)c3)cnnc21.O=C(O)C(F)(F)F [Example 15, 5′-(7-Ethyl-7H-imidazo[4,5-c]pyridazin-4-yl)-2′-fluorobiphenyl-3-carboxamide trifluoroacetate salt]	−34		40	20.3
CCn1cnc2c(-c3ccc(F)c(-c4cc(C(=O)N(C)C)ccc4F)c3)cnnc21 [Example 7, 5′-(7-Ethyl-7H-imidazo[4,5-c]pyridazin-4-yl)-2′,6-difluoro-N,N-dimethylbiphenyl-3-carboxamide]			47	30.9
CCn1cnc2c(-c3cccc(-c4ccc(C(=O)N(C)C)cc4)c3)cnnc21 [Example 20, 5′-(7-Ethyl-7H-imidazo[4,5-c]pyridazin-4-yl)-N,N-dimethyl-biphenyl-4-carboxamide trifluoroacetate salt]				224
CC(C)n1cnc2c(-c3ccc(F)c(-c4ccc5c(c4)CN(C)C5=O)c3)cnnc21 [Example 2, 5-{2-Fluoro-5-[7-(propan-2-yl)-7H-imidazo[4,5-c]pyridazin-4-yl]phenyl}-2-methyl-2,3-dihydro-1H-isoindol-1-one]	12		106	6.4
CCn1cnc2c(-c3ccc(F)c(-c4ccc(C(=O)NC(C)C)cc4)c3)cnnc21 [Example 18, 5′-(7-Ethyl-7H-imidazo[4,5-c]pyridazin-4-yl)-2′-fluoro-N-(propan-2-yl)biphenyl-4-carboxamide trifluoroacetate salt]				19.3
CCn1cnc2c(-c3ccc(F)c(-c4ccc5c(c4)C(=O)NC5)c3)cnnc21 [Example 6, 6-[5-(7-Ethyl-7H-imidazo[4,5-c]pyridazin-4-yl)-2-fluorophenyl]-2,3-dihydro-1H-isoindol-1-one]	−61		10	81.8
CN1Cc2cc(-c3cc(-c4cnnc5c4ncn5C4CC4)ccc3F)ccc2C1=O [Example 10, 5-[5-(7-Cyclopropyl-7H-imidazo[4,5-c]pyridazin-4-yl)-2-fluorophenyl]-2-methyl-2,3-dihydro-1H-isoindol-1-one]	−12		36	54.7
CCn1cnc2c(-c3ccc(F)c(-c4cc(F)cc(C(=O)NC)c4)c3)cnnc21.O=C(O)C(F)(F)F [Example 19, 5′-(7-Ethyl-7H-imidazo[4,5-c]pyridazin-4-yl)-2′,5-difluoro-N-methylbiphenyl-3-carboxamide trifluoroacetate salt]	14		66	51

Results, then the molecule that gave them:

α1 PAM (% enhancement of gamma-aminobutyric acid current) [1] [%]	Ki [2] [nM]	α2 PAM (% enhancement of gamma-aminobutyric acid current) [3] [%]	Ki [2, 4] [nM]	Structure (SMILES)
−29	6.3	33		CCn1cnc2c(-c3ccc(F)c(-c4ccc(C(=O)NC)cc4OC)c3)cnnc21 [Example 21, 5′-(7-Ethyl-7H-imidazo[4,5-c]pyridazin-4-yl)-2′-fluoro-2-methoxy-N-methylbiphenyl-4-carboxamide]
			340	CCn1cnc2c(-c3ccc(F)c(-c4cc(C(=O)N(C)C)ccc4OC)c3)cnnc21 [Example 23, 5′-(7-Ethyl-7H-imidazo[4,5-c]pyridazin-4-yl)-2′-fluoro-6-methoxy-N,N-dimethylbiphenyl-3-carboxamide]
−1	81.2	23		CCn1cnc2c(-c3ccc(F)c(-c4ccc(C(=O)N(C)C)cc4OC)c3)cnnc21 [Example 22, 5′-(7-Ethyl-7H-imidazo[4,5-c]pyridazin-4-yl)-2′-fluoro-2-methoxy-N,N-dimethylbiphenyl-4-carboxamide]
		48	10.7	CC(C)n1cnc2c(-c3ccc(F)c(-c4ccc(C(N)=O)cc4)c3)cnnc21 [Example 12, 2′-Fluoro-5′-[7-(propan-2-yl)-7H-imidazo[4,5-c]pyridazin-4-yl]biphenyl-4-carboxamide]
		60	20.5	CNC(=O)c1ccc(-c2cc(-c3cnnc4c3ncn4C3CC3)ccc2F)cc1 [Example 11, 5′-(7-Cyclopropyl-7H-imidazo[4,5-c]pyridazin-4-yl)-2′-fluoro-N-methylbiphenyl-4-carboxamide]
−55		11	7.5	CCn1cnc2c(-c3ccc(F)c(-c4ccc(C(N)=O)cc4)c3)cnnc21 [Example 14, 5′-(7-Ethyl-7H-imidazo[4,5-c]pyridazin-4-yl)-2′-fluorobiphenyl-4-carboxamide]

From patent publication US9802945B2, “Imidazopyridazine derivatives as modulators of the GABAA receptor activity” (Pfizer Limited, priority 2014, dated 2017)
